Experiments:
Test in all cases: cell-based calcium-flux assay, HEK293T with Gα15
Details in all cases: dose-response curves FIG. 6D-J
OR11H6 = biological target: T1, OR11H6 (Homo sapiens, UniProt Q8NGC7)
T1 construct: expressed in transfected cells
T1 sequence (Q8NGC7 1-330): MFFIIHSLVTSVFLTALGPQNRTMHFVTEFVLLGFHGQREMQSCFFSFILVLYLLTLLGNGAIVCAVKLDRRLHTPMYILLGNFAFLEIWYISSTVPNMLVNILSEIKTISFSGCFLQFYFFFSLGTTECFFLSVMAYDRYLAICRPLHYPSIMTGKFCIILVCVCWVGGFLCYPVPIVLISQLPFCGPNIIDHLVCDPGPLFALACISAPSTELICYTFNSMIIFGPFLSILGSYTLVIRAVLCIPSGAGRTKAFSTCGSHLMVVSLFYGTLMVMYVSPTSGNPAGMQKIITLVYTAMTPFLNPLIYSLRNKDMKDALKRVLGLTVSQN
Source text: (§1) The activity of candidate human indole and skatole malodors receptors OR52N2 (SEQ ID NO: 11 and SEQ ID NO: 12), OR11G2 (SEQ ID NO: 13 and SEQ ID NO: 14, OR5AC2 (SEQ ID NO: 75 and SEQ ID NO: 76), OR4C15 (SEQ ID NO: 79 and SEQ ID NO: 80), OR8S1 (SEQ ID NO: 83 and SEQ ID NO: 84), OR11H6 (SEQ ID NO: 15 and SEQ ID NO: 16) and OR11H4 (SEQ ID NO: 49 and SEQ ID NO: 50) and candidate mouse indole and skatole malodors receptors Olfr665 (SEQ ID NO: 9 and SEQ ID NO 10) and Olfr740 (SEQ ID NO: 1 and SEQ ID NO 2) were confirmed in cell-based calcium-flux assays (FIGS. 6A to 6J). Cells stably co-expressing Rho-tagged human OR52N2 (FIG. 6A, B) or OR11G2 (FIG. 6C) and Gα15 (SEQ ID NO: 25) were exposed to increasing concentrations of skatole or indole. FIG. 6B is a repeat experiment showing similar activity of OR52N2 with indole and skatole. Odorant-induced OR52N2 or OR11G2 activity was detected by measuring the maximum Calcium 5 dye (Molecular Devices) fluorescence change following odorant exposure. Activity is defined as the baseline corrected Relative Fluorescent Units (RFU) ratios normalized to the highest RFU in the experiment in FIG. 6A. […] A cell line lacking a receptor, for example hOR52N2, was used as a control for non-specific activity at high concentrations (‘Indole control’ and ‘Skatole control’). The human receptor OR52N2 (SEQ ID NO: 11 and SEQ ID NO: 12) was identified because of its sequence similarity to mouse Olfr665 (SEQ ID NO: 10), an indole/skatole receptor isolated from olfactory neurons responding to both indole and skatole. The human receptor OR11G2 (SEQ ID NO: 13 and SEQ ID NO: 14) was identified because of its sequence similarity to mouse Olfr740 (SEQ ID NO: 2), an indole/skatole receptor isolated from olfactory neurons responding to both indole and skatole. The receptors were modified with the Rho sequence and stably expressed in HEK 293T cells. Further examples show indole and skatole dose-response curves for human receptors OR5AC2, OR4C15, OR8S1, OR11H6, OR11H4 and mouse receptors Olfr665 and Olfr740 (FIG. 6D-J). The human receptor OR5AC2 (SEQ ID NO: 75 and SEQ ID NO: 76) was identified because of its sequence similarity to mouse Olfr207 (SEQ ID NO: 78), a receptor isolated from olfactory neurons responding to both indole and skatole. The human receptor OR4C15 (SEQ ID NO: 79 and SEQ ID NO: 80) was identified because of its sequence similarity to mouse Olfr211 (SEQ ID NO: 82), a receptor isolated from olfactory neurons responding to both indole and skatole. The human receptor OR8S1 (SEQ ID NO: 83 and SEQ ID NO: 84) was identified because of its sequence similarity to mouse Olfr257 (SEQ ID NO: 86), a receptor isolated from olfactory neurons responding to both indole and skatole. The human receptor OR11H6 (SEQ ID NO: 15 and SEQ ID NO: 16) was identified because of its sequence similarity to mouse Olfr745 (SEQ ID NO: 8), a receptor isolated from olfactory neurons responding to both indole and skatole. The human receptor OR11H4 (SEQ ID NO: 49 and SEQ ID NO: 50) was identified because of its sequence similarity to mouse Olfr746 (SEQ ID NO: 38), a receptor isolated from olfactory neurons responding to both indole and skatole. The mouse receptor Olfr665 (SEQ ID NO: 9 and SEQ ID NO: 10) was identified directly from NGS data from isolated olfactory neurons responding to both indole and skatole. The mouse receptor Olfr740 (SEQ ID NO: 1 and SEQ ID NO: 2) was identified directly from NGS data from isolated olfactory neurons responding to both indole and skatole. Co-expression of the human G alpha subunit Gα15 activates the Gq transduction pathway that leads to an internal Ca2+ increase upon binding to the appropriate ligand.

OR11H4 = biological target: T2, OR11H4 (Homo sapiens, UniProt Q8NGC9)
T2 construct: expressed in transfected cells
T2 sequence (Q8NGC9 1-324): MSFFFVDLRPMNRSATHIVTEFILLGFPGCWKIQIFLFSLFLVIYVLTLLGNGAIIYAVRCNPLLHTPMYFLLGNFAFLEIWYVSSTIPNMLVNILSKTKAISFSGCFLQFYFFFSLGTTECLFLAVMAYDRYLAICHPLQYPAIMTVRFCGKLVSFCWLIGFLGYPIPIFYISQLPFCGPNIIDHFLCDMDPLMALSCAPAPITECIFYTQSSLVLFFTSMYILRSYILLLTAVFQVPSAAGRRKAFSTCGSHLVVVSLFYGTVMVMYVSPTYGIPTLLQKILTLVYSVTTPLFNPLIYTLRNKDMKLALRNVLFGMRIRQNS
Source text: as §1

OR8S1 = biological target: T3, OR8S1 (Homo sapiens, UniProt Q8NH09)
T3 construct: expressed in transfected cells
T3 sequence (Q8NH09 1-359): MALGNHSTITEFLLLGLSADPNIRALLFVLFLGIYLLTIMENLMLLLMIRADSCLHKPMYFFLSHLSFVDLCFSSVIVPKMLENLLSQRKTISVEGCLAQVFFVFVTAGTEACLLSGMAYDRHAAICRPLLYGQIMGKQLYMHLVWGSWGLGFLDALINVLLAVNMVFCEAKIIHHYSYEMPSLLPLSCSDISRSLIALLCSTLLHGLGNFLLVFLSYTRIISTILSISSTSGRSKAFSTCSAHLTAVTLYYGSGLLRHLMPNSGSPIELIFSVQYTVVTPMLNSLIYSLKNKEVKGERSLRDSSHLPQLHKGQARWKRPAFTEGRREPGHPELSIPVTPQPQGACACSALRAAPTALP
Source text: as §1

| Compound | receptor response in vitro (OR11H6) | receptor response in vitro (OR11H4) | receptor response in vitro (OR8S1) |
| --- | --- | --- | --- |
| Cc1c[nH]c2ccccc12 [skatole, 3-methyl indole] | responded | responded | responded |
| c1ccc2[nH]ccc2c1 [indole] | responded | responded | responded |
